By Ki is commonly meant the equilibrium dissociation constant of an inhibitor or competing ligand from its target. A lower Ki goes with higher affinity.

We go through one compound from article PMC4074244 (Nature, 2014).

Experiment [1] addresses T1, mitochondrial glycerophosphate dehydrogenase (mGPD) (Homo sapiens, UniProt P43304).
T1 sequence (P43304 43-727): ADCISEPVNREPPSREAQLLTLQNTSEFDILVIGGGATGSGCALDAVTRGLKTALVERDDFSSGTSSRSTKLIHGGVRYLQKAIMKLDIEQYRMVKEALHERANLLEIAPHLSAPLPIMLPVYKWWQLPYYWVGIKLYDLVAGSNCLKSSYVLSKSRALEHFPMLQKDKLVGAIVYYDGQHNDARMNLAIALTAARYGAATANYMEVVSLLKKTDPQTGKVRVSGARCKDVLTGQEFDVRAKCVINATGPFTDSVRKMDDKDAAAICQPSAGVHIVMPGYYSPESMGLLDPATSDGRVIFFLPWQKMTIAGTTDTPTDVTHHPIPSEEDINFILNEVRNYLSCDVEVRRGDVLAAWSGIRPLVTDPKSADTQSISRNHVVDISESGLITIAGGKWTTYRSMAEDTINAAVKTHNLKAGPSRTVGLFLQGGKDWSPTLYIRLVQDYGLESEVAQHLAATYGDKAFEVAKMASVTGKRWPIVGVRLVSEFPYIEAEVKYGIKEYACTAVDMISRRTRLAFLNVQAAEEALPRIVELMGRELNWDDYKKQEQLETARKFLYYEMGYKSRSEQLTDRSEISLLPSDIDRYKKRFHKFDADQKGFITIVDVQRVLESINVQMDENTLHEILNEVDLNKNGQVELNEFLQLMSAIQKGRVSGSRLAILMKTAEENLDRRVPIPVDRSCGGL
The experiment can be described thus: DCIP reduction assay. The experiment is classed as biochemical.

For experiment [2], the target named is T2, mitochondrial glycerophosphate dehydrogenase (mGPD) (Rattus norvegicus, UniProt P35571).
T2 sequence (P35571 43-727): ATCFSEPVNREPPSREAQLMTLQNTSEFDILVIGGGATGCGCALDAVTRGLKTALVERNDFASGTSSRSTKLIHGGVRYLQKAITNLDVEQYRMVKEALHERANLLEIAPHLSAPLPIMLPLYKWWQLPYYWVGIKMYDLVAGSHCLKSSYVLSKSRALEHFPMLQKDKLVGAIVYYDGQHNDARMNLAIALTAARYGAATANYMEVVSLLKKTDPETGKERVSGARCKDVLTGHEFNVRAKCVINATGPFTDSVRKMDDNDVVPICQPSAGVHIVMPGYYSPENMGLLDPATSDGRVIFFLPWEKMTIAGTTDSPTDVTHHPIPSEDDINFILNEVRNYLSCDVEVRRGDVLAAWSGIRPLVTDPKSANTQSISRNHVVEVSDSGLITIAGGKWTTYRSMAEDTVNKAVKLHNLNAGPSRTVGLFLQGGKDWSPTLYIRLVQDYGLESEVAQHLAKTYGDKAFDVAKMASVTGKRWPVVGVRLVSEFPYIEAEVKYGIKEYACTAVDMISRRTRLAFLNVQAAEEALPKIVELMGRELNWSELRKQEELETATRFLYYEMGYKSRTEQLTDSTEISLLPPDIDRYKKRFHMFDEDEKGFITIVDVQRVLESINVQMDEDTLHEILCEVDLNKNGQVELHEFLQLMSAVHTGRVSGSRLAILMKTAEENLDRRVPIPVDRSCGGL
The experiment can be described thus: DCIP reduction assay. The experiment is classed as biochemical.

As for `CN(C)C(=N)N=C(N)N` [metformin], the results for the Ki in experiment [1] and in experiment [2] were approximately 55 µM and approximately 38 µM, respectively.
